The results in this text go back to ChEMBL document CHEMBL1139114, “Identification and structure-activity relationships of substituted pyridones as inhibitors of Pim-1 kinase” (Bioorg Med Chem Lett, 2007).

What is called IC50 is the midpoint of a concentration-inhibition curve. A higher IC50 goes with weaker potency.

The structures appear in SMILES notation. A value given as a limit tells only on which side of the number the result lay.

Test [1] concerns the target Serine/threonine-protein kinase pim-1 (Homo sapiens, UniProt P11309). Briefly: Inhibition of Pim1 kinase.
The target of test [2] is Serine/threonine-protein kinase pim-2 (Homo sapiens, UniProt Q9P1W9). Briefly: Inhibition of Pim2 kinase.
Test [3] addresses Dual specificity mitogen-activated protein kinase kinase 1 (Homo sapiens, UniProt Q02750). Briefly: Inhibition of MEK1 kinase.
Test [4] has as its target Dual specificity mitogen-activated protein kinase kinase 2 (Homo sapiens, UniProt P36507). Briefly: Inhibition of MEK2 kinase.

Chain of Serine/threonine-protein kinase pim-1 (P11309 whole entry): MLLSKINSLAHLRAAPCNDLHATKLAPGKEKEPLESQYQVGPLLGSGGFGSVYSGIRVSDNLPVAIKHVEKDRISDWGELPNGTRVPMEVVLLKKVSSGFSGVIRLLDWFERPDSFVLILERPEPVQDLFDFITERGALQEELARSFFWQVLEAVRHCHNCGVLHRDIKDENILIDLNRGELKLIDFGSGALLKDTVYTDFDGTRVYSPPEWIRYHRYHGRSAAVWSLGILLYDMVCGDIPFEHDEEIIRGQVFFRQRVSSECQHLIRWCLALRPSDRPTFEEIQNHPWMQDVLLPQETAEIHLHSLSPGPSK
Chain of Serine/threonine-protein kinase pim-2 (Q9P1W9 whole entry): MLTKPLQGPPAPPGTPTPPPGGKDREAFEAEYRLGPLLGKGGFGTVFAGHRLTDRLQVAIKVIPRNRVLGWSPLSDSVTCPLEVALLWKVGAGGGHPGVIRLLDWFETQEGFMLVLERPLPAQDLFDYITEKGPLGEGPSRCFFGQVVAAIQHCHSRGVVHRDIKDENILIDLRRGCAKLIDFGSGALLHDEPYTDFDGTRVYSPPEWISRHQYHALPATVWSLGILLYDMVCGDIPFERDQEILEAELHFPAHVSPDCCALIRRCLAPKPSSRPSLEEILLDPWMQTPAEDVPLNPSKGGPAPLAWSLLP
Chain of Dual specificity mitogen-activated protein kinase kinase 2 (P36507 whole entry): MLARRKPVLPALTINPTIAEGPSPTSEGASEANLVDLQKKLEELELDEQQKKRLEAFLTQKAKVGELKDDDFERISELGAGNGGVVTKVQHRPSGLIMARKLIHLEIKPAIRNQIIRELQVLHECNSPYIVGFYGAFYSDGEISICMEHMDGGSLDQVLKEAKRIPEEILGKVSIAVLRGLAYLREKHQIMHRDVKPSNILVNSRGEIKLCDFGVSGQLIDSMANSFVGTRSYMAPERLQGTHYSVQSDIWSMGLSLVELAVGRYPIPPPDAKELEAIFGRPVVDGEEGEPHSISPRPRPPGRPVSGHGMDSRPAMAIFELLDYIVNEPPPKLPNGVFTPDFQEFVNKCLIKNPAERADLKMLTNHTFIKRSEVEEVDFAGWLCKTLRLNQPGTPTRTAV
Chain of Dual specificity mitogen-activated protein kinase kinase 1 (Q02750 whole entry): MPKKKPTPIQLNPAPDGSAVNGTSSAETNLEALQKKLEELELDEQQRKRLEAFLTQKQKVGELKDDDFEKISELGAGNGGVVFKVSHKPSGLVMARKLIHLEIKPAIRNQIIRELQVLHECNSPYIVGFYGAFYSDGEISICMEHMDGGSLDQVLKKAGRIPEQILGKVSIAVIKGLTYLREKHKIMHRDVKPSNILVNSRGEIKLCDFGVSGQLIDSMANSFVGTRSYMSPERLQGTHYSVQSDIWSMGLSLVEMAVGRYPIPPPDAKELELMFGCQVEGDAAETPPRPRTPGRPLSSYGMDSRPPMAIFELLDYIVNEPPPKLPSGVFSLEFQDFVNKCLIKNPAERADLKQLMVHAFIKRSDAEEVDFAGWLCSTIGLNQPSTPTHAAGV

In test [1], `Cc1ccc(O)c(-c2cc(-c3ccccc3)c(C#N)c(=O)[nH]2)c1` registered an IC50 of 0.34 µM. On the same count and under the same terms, as for `Cc1ccc(O)c(-c2cc(-c3ccccc3)[nH]c(=O)c2C#N)c1`, the figure is 0.37 µM; as for `N#Cc1c(-c2ccccc2)cc(-c2ccc(O)cc2)nc1N`, 4.41 µM.

`N#Cc1c(-c2ccc(Cl)cc2)c2c([nH]c1=O)-c1ccccc1OC2` displayed a half-inhibitory concentration (IC50) in test [1] of 0.92 µM. The same measure, in the same setting: the value for `N#Cc1c(-c2ccccc2Cl)c2c([nH]c1=O)-c1ccccc1OC2` was 1.23 µM.

The compound `CCc1ccc(O)c(-c2cc(-c3cccc(Cl)c3)c(C#N)c(=O)[nH]2)c1` came in with an IC50 in test [1] of 1.03 µM. On the same count and under the same terms, as for `COc1ccc(-c2cc(C(F)(F)F)c(C#N)c(=O)[nH]2)cc1Br`, the figure is 1.14 µM; as for `N#Cc1c(-c2ccncc2)c2c([nH]c1=O)-c1ccccc1CC2`, greater than 20 µM; as for `N#Cc1c(-c2ccccn2)c2c([nH]c1=O)-c1ccccc1OC2`, greater than 20 µM.

In turn, `N#Cc1c(-c2cccnc2)c2c([nH]c1=O)-c1ccccc1SC2` came in with a half-maximal inhibitory concentration (IC50) in test [1] of 4.79 µM. In other words, the single-digit micromolar range. In test [1], `N#Cc1c(-c2ccccc2Cl)c2c([nH]c1=O)-c1ccccc1SC2` yielded an IC50 of 20 µM. For the compound `CCOC(=O)C1=C2C(=O)Oc3ccccc3C2N(C)C(=O)C1` (stereo not given), the half-maximal inhibitory concentration (IC50) in test [1] is greater than 20 µM. In test [1], `N#Cc1c(-c2ccc(F)cc2)c2c([nH]c1=O)-c1ccccc1SC2` returned an IC50 greater than 20 µM. As to `N#Cc1c(-c2ccccc2)cc(-c2cc(Br)ccc2O)[nH]c1=O`, the IC50 in test [2], in test [3] and in test [4] was greater than 20 µM throughout. `N#Cc1c(-c2ccc(O)cc2)cc(-c2ccccc2O)[nH]c1=O` yielded an IC50 in test [1] of 0.43 µM. On the same count and under the same terms, the value for `COc1ccc(-c2c3c([nH]c(=O)c2C#N)-c2ccccc2OC3)cc1` was greater than 20 µM; that for `Nc1n[nH]c2nc(-c3cc(Br)ccc3O)cc(-c3ccccc3)c12` was 1.77 µM; that for `N#Cc1c(-c2ccncc2)c2c([nH]c1=O)-c1ccccc1OC2` was 20 µM.
